Source: EP2505659A1, “Methods for the identification of dioxygenase interacting molecules and for the purification of dioxygenase proteins” (CELLZOME AG, priority 2011, dated 2012)
Counter-ions that a name gives are not always drawn. Like-named read-outs stand apart in the source and are kept apart here.

Experiments:
Assay in all cases: Bead competition binding assay, immobilized compound A, K-562, HL-60 and Jurkat nuclear lysates
Details in all cases: 100 µM free compound A, read-out: Fold change versus DMSO control
PLOD3 = biological target: T1, PLOD3 (Homo sapiens, UniProt O60568)
T1 construct: capturing and identification of dioxygenases from nuclear protein extracts; endogenous in cells
T1 sequence (O60568 25-738): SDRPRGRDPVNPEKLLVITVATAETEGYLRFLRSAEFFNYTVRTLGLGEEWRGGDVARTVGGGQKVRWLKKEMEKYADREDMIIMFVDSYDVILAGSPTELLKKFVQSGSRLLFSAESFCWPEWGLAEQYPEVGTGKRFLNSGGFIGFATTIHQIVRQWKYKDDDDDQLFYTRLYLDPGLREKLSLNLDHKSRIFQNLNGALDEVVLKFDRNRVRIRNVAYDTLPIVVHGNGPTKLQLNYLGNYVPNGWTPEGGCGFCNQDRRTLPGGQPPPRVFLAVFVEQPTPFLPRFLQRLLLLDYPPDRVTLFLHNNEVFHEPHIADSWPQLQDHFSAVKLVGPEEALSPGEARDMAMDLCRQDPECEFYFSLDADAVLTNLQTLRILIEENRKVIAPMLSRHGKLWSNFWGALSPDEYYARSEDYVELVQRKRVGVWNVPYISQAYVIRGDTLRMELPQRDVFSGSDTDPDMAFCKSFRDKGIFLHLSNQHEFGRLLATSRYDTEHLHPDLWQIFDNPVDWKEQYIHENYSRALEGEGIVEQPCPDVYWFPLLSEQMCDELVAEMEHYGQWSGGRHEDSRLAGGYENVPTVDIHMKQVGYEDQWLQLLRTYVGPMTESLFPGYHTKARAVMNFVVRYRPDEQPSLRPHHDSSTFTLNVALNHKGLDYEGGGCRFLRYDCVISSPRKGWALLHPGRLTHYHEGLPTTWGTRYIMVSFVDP
Source text: (§1) K562 cells were also purchased from DSMZ (Braunschweig, Germany).
(§2) Table 5: Peptide elution off the LC system

PLOD1 = biological target: T2, PLOD1 (Homo sapiens, UniProt Q02809)
T2 construct: capturing and identification of dioxygenases from nuclear protein extracts; endogenous in cells
T2 sequence (Q02809 19-727): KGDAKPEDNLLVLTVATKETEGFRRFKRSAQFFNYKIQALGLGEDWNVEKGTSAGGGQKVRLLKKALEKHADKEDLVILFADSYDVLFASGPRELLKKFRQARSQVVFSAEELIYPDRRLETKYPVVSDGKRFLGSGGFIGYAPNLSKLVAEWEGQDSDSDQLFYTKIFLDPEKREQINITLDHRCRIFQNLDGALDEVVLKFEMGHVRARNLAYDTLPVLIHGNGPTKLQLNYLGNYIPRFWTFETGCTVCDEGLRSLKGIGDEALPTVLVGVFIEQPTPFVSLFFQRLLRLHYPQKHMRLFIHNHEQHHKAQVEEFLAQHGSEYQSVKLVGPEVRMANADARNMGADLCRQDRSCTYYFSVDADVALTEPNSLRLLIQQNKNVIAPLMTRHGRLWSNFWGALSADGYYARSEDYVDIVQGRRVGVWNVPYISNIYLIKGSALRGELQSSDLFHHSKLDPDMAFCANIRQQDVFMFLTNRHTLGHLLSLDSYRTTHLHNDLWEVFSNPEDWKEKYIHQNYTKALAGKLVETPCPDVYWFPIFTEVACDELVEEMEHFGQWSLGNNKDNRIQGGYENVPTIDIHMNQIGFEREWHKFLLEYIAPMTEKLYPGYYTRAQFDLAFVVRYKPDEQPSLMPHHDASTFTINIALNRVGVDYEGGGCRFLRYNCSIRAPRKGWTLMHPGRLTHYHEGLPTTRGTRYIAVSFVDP
Source text: as §1, §2

LEPREL2 = biological target: T3, LEPREL2 (Homo sapiens, UniProt Q8IVL6)
T3 construct: capturing and identification of dioxygenases from nuclear protein extracts; endogenous in cells
T3 sequence (Q8IVL6 21-736): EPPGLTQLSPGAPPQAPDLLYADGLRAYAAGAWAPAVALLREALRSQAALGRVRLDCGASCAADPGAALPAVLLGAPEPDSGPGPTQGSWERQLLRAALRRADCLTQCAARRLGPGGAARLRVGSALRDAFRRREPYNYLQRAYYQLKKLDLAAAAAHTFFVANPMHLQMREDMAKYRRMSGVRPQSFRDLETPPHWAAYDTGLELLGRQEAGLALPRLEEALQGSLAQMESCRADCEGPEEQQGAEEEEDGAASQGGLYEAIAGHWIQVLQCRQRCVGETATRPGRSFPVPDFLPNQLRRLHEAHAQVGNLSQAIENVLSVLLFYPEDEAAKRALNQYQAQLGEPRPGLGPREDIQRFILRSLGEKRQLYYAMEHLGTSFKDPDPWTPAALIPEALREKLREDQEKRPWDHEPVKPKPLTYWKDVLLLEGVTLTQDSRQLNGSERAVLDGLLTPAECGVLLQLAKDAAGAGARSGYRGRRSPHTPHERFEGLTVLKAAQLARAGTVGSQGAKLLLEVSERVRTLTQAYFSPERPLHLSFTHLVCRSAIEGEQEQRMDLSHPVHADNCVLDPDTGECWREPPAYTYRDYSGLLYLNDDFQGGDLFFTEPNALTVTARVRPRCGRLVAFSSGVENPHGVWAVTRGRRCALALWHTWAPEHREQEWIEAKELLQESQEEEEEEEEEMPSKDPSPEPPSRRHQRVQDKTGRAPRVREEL
Source text: as §1, §2

ALKBH3 = biological target: T4, ALKBH3 (Homo sapiens, UniProt Q96Q83)
T4 construct: capturing and identification of dioxygenases from nuclear protein extracts; endogenous in cells
T4 sequence (Q96Q83 1-286): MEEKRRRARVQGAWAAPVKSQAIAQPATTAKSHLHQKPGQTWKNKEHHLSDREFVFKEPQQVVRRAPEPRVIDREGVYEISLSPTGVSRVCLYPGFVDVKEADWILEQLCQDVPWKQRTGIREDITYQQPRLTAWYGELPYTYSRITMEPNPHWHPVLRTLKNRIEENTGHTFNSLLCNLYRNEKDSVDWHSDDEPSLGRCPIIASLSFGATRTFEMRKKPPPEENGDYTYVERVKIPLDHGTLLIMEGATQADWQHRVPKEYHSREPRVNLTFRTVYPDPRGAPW
Source text: as §1, §2

## O=C(O)CNC(=O)C1C(=O)OC2(CCNCC2)OC1=O [compound A, 2-(2,4-dioxo-1,5-dioxa-9-azaspiro[5.5]undecane-3-carboxamido)acetic acid hydrochloride]
PLOD3; Jurkat nuclear lysate
  remaining binding at 100 µM: 161%
PLOD3; K-562 nuclear lysate
  remaining binding at 100 µM: 52%
PLOD1; Jurkat nuclear lysate
  remaining binding at 100 µM: 91%
PLOD1; K-562 nuclear lysate
  remaining binding at 100 µM: 35%
LEPREL2; Jurkat nuclear lysate
  remaining binding at 100 µM: 9%
LEPREL2; K-562 nuclear lysate
  remaining binding at 100 µM: 25%
ALKBH3; HL-60 nuclear lysate
  remaining binding at 100 µM: 36%
ALKBH3; Jurkat nuclear lysate
  remaining binding at 100 µM: 32%
